Test results from US12698260B2, “Solid state form of centanafadine HCL and process for preparation thereof” (ASSIA CHEMICAL INDUSTRIES LTD., priority 2021, dated 2026).

Columns and labels:
[1] = Solubility over a range of pH; settings: over a wide range of pH; comparator not stated
[2] = Solid-state stability upon storage and processing; settings: storage and processing (e.g. grinding, pressure, heat, humidity)

SMILES: c1ccc2cc([C@]34CNC[C@H]3C4)ccc2c1 [(1R,5S)-1-naphthalen-2-yl-3-azabicyclo[3.1.0]hexane]
- solubility [1]: improved solubility
- stability of the crystalline form upon storage and processing [2]: stable crystalline Form upon storage and processing
